Source: patent US20250186456A1, “PYRIMIDINE-FUSED CYCLIC COMPOUND AND PREPARATION METHOD AND USE THEREOF” (Genfleet Therapeutics (Shanghai) Inc., priority 2021, published 2025)
Where two headings read alike, the source gives them in different places.

Columns and labels:
Type in all cases: cell-based, human
[1] = test system: p-ERK in AGS cells (KRAS G12D mutation); experiment: Cell p-ERK assay (HTRF, Advance ERK phospho-T202/Y204 kit); details: AGS cells, 3 hours incubation with compound, HTRF, read-out: AGS p-ERK IC50
Outline: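 Phospho-ERK (T202/Y204) measured by HTRF in lysates of human gastric AGS cells carrying KRAS G12D, after 3 h compound exposure at 0.1% DMSO over a 3.16-fold series. Percent inhibition relative to DMSO control and lysis-only blank; four-parameter curve fitting gave IC50.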

AGS cells (KRAS G12D) = experiment: Cell proliferation inhibition assay, 3D, CellTiter-Glo 3D, AGS; details: AGS 3D sphere model, 5 days incubation
Outline: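 Spheroids (800 AsPC-1 or 400 AGS cells/well; RPMI-1640 or F-12K with 10% FBS) formed overnight, then were dosed on day 2 with a 3.16-fold series at 0.1% DMSO. After 5 days, viability was read by CellTiter-Glo 3D luminescence, and IC50 came from four-parameter fits of inhibition versus DMSO control and medium blank.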

[2] = test system: AsPC-1 cells (KRAS G12D mutation); experiment: Cell proliferation inhibition assay, 3D, CellTiter-Glo 3D, AsPC-1; details: AsPC-1 3D sphere model, 5 days incubation
Text: AsPC-1 was purchased from ATCC; catalog No: CRL-1682; AGS was purchased from ATCC; catalog No: CRL-1739; RPMI1640 was purchased from Gibco; catalog No: 11875-093 2235123; F12K was purchased from Gibco; catalog No: 21127-022; FBS was purchased from Gibco; catalog No: 10099-141C; trypsin (containing EDTA) was purchased from Gibco; catalog No: 25200-072; CellTiter Glo-3D was purchased from Progema; catalog No: G9683; 384-well sphere plates were purchased from Corning; catalog No: 3830; white opaque 384-well plates were purchased from Corning; catalog No: 3570; cell counters were purchased from CHEMOMETEC; model: NC-200; microplate reader was purchased from PerkinElmer; model: Envison;
AsPC-1 is an endogenous human pancreatic cancer cell containing KRAS^G12D mutation, cultured in RPMI-1640 medium containing 10% FBS; AGS is a human gastric cancer cell line containing KRAS^G12D, cultured in F-12K medium containing 10% FBS. Cells in the logarithmic growth phase were taken, digested with trypsin (containing EDTA), collected, and counted. 800 AsPC-1 cells/well or 400 AGS cells/well, respectively, were seeded in a 384-well sphere plate and cultured overnight at 5% CO2 to establish a 3D cell model. 1000X stock solutions of compounds at a 3.16-fold concentration gradient of were prepared using DMSO, diluted 100-fold into a 10X compound stock solution using the medium described above. The 10X compound stock solution was added to each cell on 2nd day after cell seeding at a final concentration of 1X and a DMSO content of 0.1%. DMSO was used as a control in the experiment, and the medium was used as blank. After the addition of the compounds, the cells were incubated for 5 days. 30 μl of CellTiter-Glo work solution was added to each well, mixed well, and incubated for 30 minutes. After standing at room temperature for 30 minutes, 40 μl of the mixed solution was transferred to an opaque 384-well plate with a white clear bottom. Luminescence chemiluminescence value was read by a microplate reader, and the cell proliferation inhibition rate (IR (%)=(RLU control-RLU compound)/(RLU control-RLU blank)×100%) was calculated. The gradiently diluted concentration of the compounds and corresponding cell proliferation inhibition rate were fitted using XLFit four-parameters method, and the IC50 value was calculated. […] The results of some exemplary compounds are shown in Table 2 (“−” represents untested).

Compound `C#Cc1c(F)ccc2cc(O)cc(-c3nc4c5c(nc(OCC67CC(=C)CN6CC(=C)C7)nc5c3F)N3C[C@H]5CC[C@H](N5)[C@H]3CCO4)c12` [Example Z598] has an IC50 ([1]; Homo sapiens) of 0.68 nM, an IC50 (AGS cells (KRAS G12D); Homo sapiens, 120 h) of 1.23 nM and an IC50 ([2]; Homo sapiens, ASPC1, 120 h) of 5.55 nM.

Compound `C#Cc1cccc2cccc(-c3nc4c5c(nc(OC[C@]67CCCN6CCC7=C)nc5c3F)N3C[C@H]5CC[C@H](N5)[C@H]3[C@H](C)O4)c12` [Example Z677, (5S,5aS,6S,9R)-2-(8-ethynylnaphthalen-1-yl)-1-fluoro-5-methyl-12-(((R)-1-methylenetetrahydro-1H-pyrrolizin-7a (5H)-yl)methoxy)-5a,6,7,8,9,10-hexahydro-5H-4-oxa-3,10a,11,13,14-pentaaza-6,9-methanonaphtho[1,8-ab]heptalene] has an IC50 ([1]; Homo sapiens) of 185 nM, an IC50 (AGS cells (KRAS G12D); Homo sapiens, 120 h) of 795 nM and an IC50 ([2]; Homo sapiens, ASPC1, 120 h) of 981 nM.

`C#Cc1c(Cl)ccc2cccc(-c3nc4c5c(nc(OCC67CCCN6CC(=C)C7)nc5c3F)N3C[C@H]5CC[C@H](N5)[C@H]3[C@H](C)O4)c12` (stereo partly drawn) [Example Z593, (5S,5aS,6S,9R)-2-(7-chloro-8-ethynylnaphthalen-1-yl)-1-fluoro-5-methyl-12-((2-methylenetetrahydro-1H-pyrrolizin-7a (5H)-yl)methoxy)-5a,6,7,8,9,10-hexahydro-5H-4-oxa-3,10a, 11,13, 14-pentaaza-6,9-methanonaphtho[1,8-ab]heptalene] was tested, and the IC50 ([1]; Homo sapiens) was 29 nM, the IC50 (AGS cells (KRAS G12D); Homo sapiens, 120 h) was 35.4 nM and the IC50 ([2]; Homo sapiens, ASPC1, 120 h) was 78.8 nM.

`C#Cc1cccc2cc(N)cc(-c3nc4c5c(nc(OCC67CC(=C)CN6C[C@H](F)C7)nc5c3F)N3C[C@H]5CC[C@H](N5)[C@H]3[C@H](C)O4)c12` (stereo partly drawn) [Example Z699, 5-ethynyl-4-((5S,5aS,6S,9R)-1-fluoro-12-(((2R)-2-fluoro-6-methylenetetrahydro-1H-pyrrolizin-7a (5H)-yl)methoxy)-5-methyl-5a,6,7,8,9,10-hexahydro-5H-4-oxa-3,10a, 11,13,14-pentaaza-6,9-methanonaphtho[1,8-ab]heptalen-2-yl) naphthalen-2-amine] gave an IC50 ([1]; Homo sapiens) of 0.44 nM, an IC50 (AGS cells (KRAS G12D); Homo sapiens, 120 h) of 1.98 nM and an IC50 ([2]; Homo sapiens, ASPC1, 120 h) of 2.37 nM.

`C#Cc1cccc2cc(O)cc(-c3nc4c5c(nc(OC[C@@]67CCCN6C[C@H](F)C7)nc5c3F)N3C[C@H]5CC[C@H](N5)[C@H]3[C@H](CC)O4)c12` [Example Z386, 4-((5S,5aS,6S,9R)-5-Ethyl-1-Fluoro-12-(((2R,7aS)-2-Fluorotetrahydro-1H-Pyrrolizin-7a (5H)-Yl)Methoxy)-5a,6,7,8,9,10-Hexahydro-5H-4-Oxa-3,10a,11,13,14-Pentaaza-6,9-Methanonaphtho[1,8-Ab]Heptalen-2-Yl)-5-Ethynylnaphthalen-2-Ol] was tested, and the IC50 ([1]; Homo sapiens) was 0.76 nM, the IC50 (AGS cells (KRAS G12D); Homo sapiens, 120 h) was 2.4 nM and the IC50 ([2]; Homo sapiens, ASPC1, 120 h) was 14.7 nM.

Compound `C#Cc1c(F)ccc2cccc(-c3nc4c5c(nc(OCC67CC(OC)CN6CCC7=C)nc5c3F)N3C[C@H]5CC[C@H](N5)[C@H]3[C@H](C)O4)c12` (stereo partly drawn) [Example Z681, (5S,5aS,6S,9R)-2-(8-Ethynyl-7-Fluoronaphthalen-1-Yl)˜1-Fluoro-12-((6-Methoxy-1-Methylenetetrahydro-1H-Pyrrolizin-7a (5H)-Yl)Methoxy)-5-Methyl-5a,6,7,8,9,10-Hexahydro-5H-4-Oxa-3,10a,11,13,14-Pentaaza-6,9-Methanonaphtho[1,8-Ab]Heptalene] has an IC50 [1] of 5.73 nM, an IC50 (AGS cells (KRAS G12D)) of 13 nM and an IC50 [2] of 37.9 nM.

`C#Cc1c(F)ccc2cccc(-c3nc4c5c(nc(OCC67CC(=C)CN6C[C@H](F)C7)nc5c3F)N3C[C@H]5CC[C@H](N5)[C@H]3[C@H](C)O4)c12` (stereo partly drawn) [Example Z633, (5S,5aS,6S,9R)-2-(8-ethynyl-7-fluoronaphthalen-1-yl)-1-fluoro-12-(((2R)-2-fluoro-6-methylenetetrahydro-1H-pyrrolizin-7a (5H)-yl)methoxy)-5-methyl-5a,6,7,8,9,10-hexahydro-5H-4-oxa-3,10a,11,13,14-pentaaza-6,9-methanonaphtho[1,8-ab]heptalene] gave an IC50 ([1]; Homo sapiens) of 14.5 nM, an IC50 (AGS cells (KRAS G12D); Homo sapiens, 120 h) of 59 nM and an IC50 ([2]; Homo sapiens, ASPC1, 120 h) of 56.7 nM.

Compound `C#Cc1cccc2cc(N)cc(-c3nc4c5c(nc(OC[C@]67CCCN6CC(F)(F)C7)nc5c3F)N3C[C@H]5CC[C@H](N5)[C@H]3[C@H](C)O4)c12` [Example Z734, 4-((5S,5aS,6S,9R)-12-(((R)-2,2-difluorotetrahydro-1H-pyrrolizin-7a (5H)-yl)methoxy)-1-fluoro-5-methyl-5a,6,7,8,9,10-hexahydro-5H-4-oxa-3,10a, 11,13, 14-pentaaza-6,9-methanonaphtho[1,8-ab]heptalene-2-yl)-5-ethynylnaphthalen-2-amine] has an IC50 ([1]; Homo sapiens) of 3.42 nM, an IC50 (AGS cells (KRAS G12D); Homo sapiens, 120 h) of 17.2 nM and an IC50 ([2]; Homo sapiens, ASPC1, 120 h) of 12.1 nM.

Compound `C=C1CCN2C[C@H](F)CC12COc1nc2c3c(nc(-c4cc(N)c(F)c5ccc(F)c(F)c45)c(F)c3n1)O[C@@H](C)[C@@H]1[C@@H]3CC[C@H](CN21)N3` (stereo partly drawn) [Example Z731, 1,5,6-trifluoro-4-((5S, 5aS,6S,9R)-1-fluoro-12-(((6R)-6-fluoro-1-methylenetetrahydro-1H-pyrrolizin-7a (5H)-yl)methoxy)-5-methyl-5a,6,7,8,9,10-hexahydro-5H-4-oxa-3,10a, 11,13,14-pentaaza-6,9-methanonaphtho[1,8-ab]heptalene-2-yl) naphthalen-2-amine] has an IC50 ([1]; Homo sapiens) of 1.6 nM, an IC50 (AGS cells (KRAS G12D); Homo sapiens, 120 h) of 5.7 nM and an IC50 ([2]; Homo sapiens, ASPC1, 120 h) of 15.8 nM.

In the case of `C#Cc1cccc2cc(N)cc(-c3nc4c5c(nc(OC[C@@H]6CCCN6CC(F)F)nc5c3F)N3C[C@H]5CC[C@H](N5)[C@H]3[C@H](C)O4)c12` [Example Z733, 4-((5S,5aS,6S,9R)-12-(((S)-1-(2,2-difluoroethyl)pyrrolidin-2-yl)methoxy)-1-fluoro-5-methyl-5a,6,7,8,9,10-hexahydro-5H-4-oxa-3,10a,11,13,14-pentaaza-6,9-methanonaphtho[1,8-ab]heptalen-2-yl)-5-ethynylnaphthalen-2-amine], the IC50 ([1]; Homo sapiens) is reported as 76 nM, the IC50 (AGS cells (KRAS G12D); Homo sapiens, 120 h) is reported as 297 nM and the IC50 ([2]; Homo sapiens, ASPC1, 120 h) is reported as 267 nM.

In the case of `C#Cc1c(F)ccc2cccc(-c3nc4c5c(nc(OC[C@@]67CCCN6C[C@H](F)C7)nc5c3F)N3C[C@H]5CC[C@H](N5)[C@H]3[C@H](C)O4)c12` [Example Z632, (5S,5aS,6S,9R)-2-(8-Ethynyl-7-Fluoronaphthalen-1-Yl)-1-Fluoro-12-(((2R,7aS)-2-Fluorotetrahydro-1H-Pyrrolizin-7a (5H)-Yl)Methoxy)-5-Methyl-5a,6,7,8,9,10-Hexahydro-5H-4-Oxa-3,10a,11,13,14-Pentaaza-6,9-Methanonaphtho[1,8-Ab]Heptalene], the IC50 ([1]; Homo sapiens) is reported as 30.4 nM, the IC50 (AGS cells (KRAS G12D); Homo sapiens, 120 h) is reported as 26.2 nM and the IC50 ([2]; Homo sapiens, ASPC1, 120 h) is reported as 53.8 nM.

`C#Cc1cccc2cccc(-c3nc4c5c(nc(OC[C@@]67CCCN6CCC7=C)nc5c3F)N3C[C@H]5CC[C@H](N5)[C@H]3[C@H](C)O4)c12` [Example Z702, (5S,5aS,6S,9R)-2-(8-ethynylnaphthalen-1-yl)-1-fluoro-5-methyl-12-(((S)-1-methylenetetrahydro-1H-pyrrolizin-7a (5H)-yl)methoxy)-5a,6,7,8,9,10-hexahydro-5H-4-oxa-3,10a, 11,13,14-pentaaza-6,9-methanonaphtho[1,8-ab]heptalene] gave an IC50 ([1]; Homo sapiens) of 11.1 nM, an IC50 (AGS cells (KRAS G12D); Homo sapiens, 120 h) of 26.8 nM and an IC50 ([2]; Homo sapiens, ASPC1, 120 h) of 51.9 nM.

`C#Cc1c(F)ccc2cccc(-c3nc4c5c(nc(OCC67CCCN6CC(=C)C7)nc5c3F)N3C[C@H]5CC[C@H](N5)[C@H]3[C@H](C)O4)c12` (stereo partly drawn) [Example Z590, (5S,5aS,6S,9R)-2-(8-ethynyl-7-fluoronaphthalen-1-yl)-1-fluoro-5-methyl-12-((2-methylenetetrahydro-1H-pyrrolizin-7a (5H)-yl)methoxy)-5a,6,7,8,9,10-hexahydro-5H-4-oxa-3,10a,11,13,14-pentaaza-6,9-methanonaphtho[1,8-ab]heptalene] showed an IC50 ([1]; Homo sapiens) of 7.11 nM, an IC50 (AGS cells (KRAS G12D); Homo sapiens, 120 h) of 17.3 nM and an IC50 ([2]; Homo sapiens, ASPC1, 120 h) of 114 nM.
